Experimental data reported in US20120004200A1, “TOPICAL PHARMACEUTICAL COMPOSITION CONTAINING A WATER-SENSITIVE ACTIVE PRINCIPLE” (GALDERMA S.A., priority 2008, published 2012).
Read-outs that look alike come from different tables or passages of the source. One block for each compound: values may come before it.

How the values were obtained:
[1] = Stability of rucinol in various solvent oils; format: physicochemical; conditions: 40° C., T 1 month, 5% rucinol
Procedure: The preparations are prepared according to the following proportions: 5% of rucinol, a sufficient amount of solvent oil to obtain 100%.
(§1) Assay technique by HPLC against reference substance.

[2] = Stability of ivermectin in various solvent oils; format: physicochemical; conditions: 40° C., T 1 month, 1% ivermectin
Procedure: The preparations are prepared according to the following proportions: 1% of ivermectin, a sufficient amount of solvent oil to obtain 100%.
as §1

[3] = T 3 months, 4% hydroquinone
Procedure: The preparations are prepared according to the following proportions: 4% of hydroquinone, a sufficient amount of solvent oil to obtain 100%.
as §1

[4] = Stability of calcitriol in various solvent oils; format: physicochemical; conditions: RT
Procedure: In order to optimize the dissolution of the active agent to be incorporated into the compositions according to the invention, stability tests are performed in various solvent oils: The preparations are prepared according to the following proportions: 0.00666% of calcitriol/0.29629% of BHT, a sufficient amount of solvent oil to obtain 100%. Assay technique by HPLC against reference substance.

- % Rucinol (% LC) ([1]; solvent PEG-8 caprylic/capric triglycerides): 100 % LC
- % Rucinol (% LC) ([1]; solvent PEG-35 castor oil): 96 % LC
- % Rucinol (% LC) ([1]; solvent PPG-15 stearyl ether): 95 % LC
- % Rucinol (% LC) ([1]; solvent caprylic/capric triglycerides): 99 % LC
Compound: CCCCc1ccc(O)cc1O [Rucinol, rucinol]

Compound: ivermectin
- % Ivermectin/To ([2]; solvent PPG-15 stearyl ether): 98.07%
- % Ivermectin/To ([2]; solvent benzyl alcohol): 98.6%
- % Ivermectin/To ([2]; solvent diisopropyl adipate): 96.7%
- % Ivermectin/To ([2]; solvent phenoxyethanol): 98.6%

- % Hydroquinone/To ([3]; solvent PPG-15 stearyl ether, 40° C.): 96.00%
- % Hydroquinone/To ([3]; solvent caprylic/capric triglycerides, 40° C.): 95.00%
- % Hydroquinone/To ([3]; solvent diisopropyl adipate, temperature not given): 97.4%
Compound: Oc1ccc(O)cc1 [Hydroquinone, hydroquinone]

- % Calcitriol/To ([4]; solvent PPG-15 stearyl ether, T 1 month): 100.00%
- % Calcitriol/To ([4]; solvent caprylic/capric triglycerides, T 1 month, 0.00666% calcitriol, 0.29629% BHT): 100.3%
- % Calcitriol/To ([4]; solvent caprylic/capric triglycerides, T 3 months): 99.9%
- % Calcitriol/To ([4]; solvent diisopropyl adipate, T 1 month): 101.5%
- % Calcitriol/To ([4]; solvent diisopropyl adipate, T 3 months): 97.2%
- % Calcitriol/To ([4]; solvent octyldodecanol, T 1 month): 98.3%
- % Calcitriol/To ([4]; solvent octyldodecanol, T 3 months): 95.00%
Compound: C=C1/C(=C\C=C2/CCC[C@]3(C)[C@@H]([C@H](C)CCCC(C)(C)O)CC[C@@H]23)C[C@@H](O)C[C@@H]1O [Calcitriol, calcitriol]
